Experimental data reported in patent publication US11591336B2 (Relay Therapeutics, Inc., priority 2017, dated 2023).
Counter-ions that a name gives are not always drawn.

What follows are molecules tested against SHP2 (Homo sapiens (Human), UniProt Q06124) (assay: SHP2 Allosteric Inhibition Assay (DiFMUP prompt fluorescence)). Settings: 0.25 nM SHP2 activated with 0.5 μM peptide IRS1_pY1172(dPEG8)pY1222; substrate DiFMUP 100 μM; 25° C.
Type: biochemical

Sequence of SHP2 (Q06124 whole entry): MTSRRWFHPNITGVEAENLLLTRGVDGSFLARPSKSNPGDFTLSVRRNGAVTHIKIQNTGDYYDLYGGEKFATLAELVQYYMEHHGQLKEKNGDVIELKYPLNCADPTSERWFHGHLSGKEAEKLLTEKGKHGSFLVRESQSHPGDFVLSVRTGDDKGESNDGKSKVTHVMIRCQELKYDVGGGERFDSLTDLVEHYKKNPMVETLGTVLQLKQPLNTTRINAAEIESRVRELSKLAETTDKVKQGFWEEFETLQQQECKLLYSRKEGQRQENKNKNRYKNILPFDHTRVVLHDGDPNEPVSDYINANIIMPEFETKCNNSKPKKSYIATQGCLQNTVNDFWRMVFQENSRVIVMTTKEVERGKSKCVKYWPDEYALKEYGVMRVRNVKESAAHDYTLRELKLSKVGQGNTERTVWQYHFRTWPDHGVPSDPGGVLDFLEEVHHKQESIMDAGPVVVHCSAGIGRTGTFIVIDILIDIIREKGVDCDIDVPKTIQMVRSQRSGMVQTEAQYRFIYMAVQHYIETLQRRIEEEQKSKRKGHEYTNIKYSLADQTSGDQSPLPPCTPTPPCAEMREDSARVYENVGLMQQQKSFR

Row | Structure (SMILES) | IC50
1 | C[C@@H]1CCN(c2n[nH]c3nc(N4CCC5(CC4)CO[C@@H](C)[C@H]5N)cnc23)c2ccc(C(=O)N(C)C)nc21 [Compound 347, (8R)-5-{6-[(3S,4S)-4-amino-3-methyl-2-oxa-8-azaspiro[4.5]decan-8-yl]-1H-pyrazolo[3,4-b]pyrazin-3-yl}-N,N,8-trimethyl-5,6,7,8-tetrahydro-1,5-naphthyridine-2-carboxamide] | < 1000 nM
2 | C[C@@H]1OCC2(CCN(c3cnc4c(N5CCCc6nc(-c7cccnn7)ccc65)n[nH]c4n3)CC2)[C@@H]1N [Compound 348] | < 1000 nM
3 | C[C@@H]1OCC2(CCN(c3cnc4c(N5CCCc6nc(-c7cnccn7)ccc65)n[nH]c4n3)CC2)[C@@H]1N [Compound 350] | < 1000 nM
4 | C[C@@H]1OCC2(CCN(c3cnc4c(N5CCCc6nc(-c7cnn(CCO)c7)ccc65)n[nH]c4n3)CC2)[C@@H]1N [Compound 351, 2-[4-(5-{6-[(3S,4S)-4-amino-3-methyl-2-oxa-8-azaspiro[4.5]decan-8-yl]-1H-pyrazolo[3,4-b]pyrazin-3-yl}-5,6,7,8-tetrahydro-1,5-naphthyridin-2-yl)-1H-pyrazol-1-yl]ethan-1-ol] | < 1000 nM
5 | C[C@@H]1OCC2(CCN(c3cnc4c(N5CCCc6nc(CC#N)ccc65)n[nH]c4n3)CC2)[C@@H]1N [Compound 352] | < 1000 nM
6 | Cc1nnc(-c2ccc3c(c2)[C@@H](C)CCN3c2n[nH]c3nc(N4CCC5(CC4)CO[C@@H](C)[C@H]5N)cnc23)o1 [Compound 353] | < 1000 nM
7 | Cc1ccc2c(c1)CCCN2c1n[nH]c2nc(N3CCC4(CC3)CO[C@@H](C)[C@H]4N)cnc12 [Compound 354] | < 1000 nM
8 | C[C@@H]1OCC2(CCN(c3cnc4c(N5CCCc6ccccc65)n[nH]c4n3)CC2)[C@@H]1N [Compound 355] | < 1000 nM
9 | C[C@@H]1OCC2(CCN(c3cnc4c(N5CCCc6nc(-c7cncs7)ccc65)n[nH]c4n3)CC2)[C@@H]1N [Compound 356] | < 1000 nM
10 | CC1c2ccccc2CCN1c1n[nH]c2nc(N3CCC4(CC3)CO[C@@H](C)[C@H]4N)cnc12 (some centres unmarked) [Compound 357] | < 1000 nM
11 | C[C@@H]1OCC2(CCN(c3cnc4c(N5CCc6cccc(-c7cnn(C)c7)c6C5)n[nH]c4n3)CC2)[C@@H]1N [Compound 358] | ≥ 10000 nM
12 | C[C@@H]1OCC2(CCN(c3cnc4c(N5CCc6cccc(C#N)c6C5)n[nH]c4n3)CC2)[C@@H]1N [Compound 359] | 1000 to 10000 nM
13 | CCC(=O)N1CCN(c2n[nH]c3nc(N4CCC5(CC4)CO[C@@H](C)[C@H]5N)cnc23)c2ccccc21 [Compound 360] | < 1000 nM
14 | Cc1csc(-c2ccc3c(n2)CCCN3c2n[nH]c3nc(N4CCC5(CC4)CO[C@@H](C)[C@H]5N)cnc23)n1 [Compound 361] | < 1000 nM
15 | CNC(=O)c1ccc2c(n1)[C@@H](C)CCN2c1n[nH]c2nc(N3CCC4(CC3)CO[C@@H](C)[C@H]4N)cnc12 [Compound 362, (8S)-5-{6-[(3S,4S)-4-amino-3-methyl-2-oxa-8-azaspiro[4.5]decan-8-yl]-1H-pyrazolo[3,4-b]pyrazin-3-yl}-N,8-dimethyl-5,6,7,8-tetrahydro-1,5-naphthyridine-2-carboxamide] | < 1000 nM
16 | CNC(=O)c1ccc2c(n1)[C@H](C)CCN2c1n[nH]c2nc(N3CCC4(CC3)CO[C@@H](C)[C@H]4N)cnc12 [Compound 363, (8R)-5-{6-[(3S,4S)-4-amino-3-methyl-2-oxa-8-azaspiro[4.5]decan-8-yl]-1H-pyrazolo[3,4-b]pyrazin-3-yl}-N,8-dimethyl-5,6,7,8-tetrahydro-1,5-naphthyridine-2-carboxamide] | < 1000 nM
17 | C[C@@H]1OCC2(CCN(c3cnc4c(N5CC[C@H](C)c6nc(C(=O)N(C)C)ccc65)n[nH]c4n3)CC2)[C@@H]1N [Compound 364, (8S)-5-{6-[(3S,4S)-4-amino-3-methyl-2-oxa-8-azaspiro[4.5]decan-8-yl]-1H-pyrazolo[3,4-b]pyrazin-3-yl}-N,N,8-trimethyl-5,6,7,8-tetrahydro-1,5-naphthyridine-2-carboxamide] | < 1000 nM
18 | C[C@@H]1OCC2(CCN(c3cnc4c(N5CCCc6cc(-c7cnn(C)c7)ccc65)n[nH]c4n3)CC2)[C@@H]1N [Compound 365] | < 1000 nM
19 | CNC(=O)c1ccc2c(c1)N(C)CCN2c1n[nH]c2nc(N3CCC4(CC3)CO[C@@H](C)[C@H]4N)cnc12 [Compound 366, 1-{6-[(3S,4S)-4-amino-3-methyl-2-oxa-8-azaspiro[4.5]decan-8-yl]-1H-pyrazolo[3,4-b]pyrazin-3-yl}-N,4-dimethyl-1,2,3,4-tetrahydroquinoxaline-6-carboxamide] | < 1000 nM
20 | C[C@@H]1OCC2(CCN(c3cnc4c(N5CCN(C)c6c5cccc6S(C)(=O)=O)n[nH]c4n3)CC2)[C@@H]1N [Compound 367] | < 1000 nM
21 | CCS(=O)(=O)c1cccc2c1CCCN2c1n[nH]c2nc(N3CCC4(CC3)CO[C@@H](C)[C@H]4N)cnc12 [Compound 368] | < 1000 nM
22 | C[C@@H]1OCC2(CCN(c3cnc4c(N5CCCc6c5cccc6P(C)(C)=O)n[nH]c4n3)CC2)[C@@H]1N [Compound 369] | < 1000 nM
23 | C[C@@H]1OCC2(CCN(c3cnc4c(N5CCCc6nc(-c7cnn(C8COC8)c7)ccc65)n[nH]c4n3)CC2)[C@@H]1N [Compound 372, (3S,4S)-3-methyl-8-(3-{6-[1-(oxetan-3-yl)-1H-pyrazol-4-yl]-1,2,3,4-tetrahydro-1,5-naphthyridin-1-yl}-1H-pyrazolo[3,4-b]pyrazin-6-yl)-2-oxa-8-azaspiro[4.5]decan-4-amine] | < 1000 nM
24 | C[C@@H]1OCC2(CCN(c3cnc4c(N5CCCc6c5cccc6[N+](=O)[O-])n[nH]c4n3)CC2)[C@@H]1N [Compound 373] | < 1000 nM

Row | Structure (SMILES) | IC50
25 | C[C@@H]1OCC2(CCN(c3cnc4c(N5CCCc6c5cccc6N(C)S(C)(=O)=O)n[nH]c4n3)CC2)[C@@H]1N [Compound 374] | < 1000 nM
26 | C[C@@H]1OCC2(CCN(c3cnc4c(N5CCCc6c(N)cccc65)n[nH]c4n3)CC2)[C@@H]1N [Compound 375, (3S,4S)-8-[3-(5-amino-1,2,3,4-tetrahydroquinolin-1-yl)-1H-pyrazolo[3,4-b]pyrazin-6-yl]-3-methyl-2-oxa-8-azaspiro[4.5]decan-4-amine] | < 1000 nM
27 | CC(=O)Nc1cccc2c1CCCN2c1n[nH]c2nc(N3CCC4(CC3)CO[C@@H](C)[C@H]4N)cnc12 [Compound 376, N-(1-{6-[(3S,4S)-4-amino-3-methyl-2-oxa-8-azaspiro[4.5]decan-8-yl]-1H-pyrazolo[3,4-b]pyrazin-3-yl}-1,2,3,4-tetrahydroquinolin-5-yl)acetamide] | < 1000 nM
28 | C[C@@H]1OCC2(CCN(c3cnc4c(N5CCN(C)c6nc(Cl)ccc65)n[nH]c4n3)CC2)[C@@H]1N [Compound 377] | < 1000 nM
29 | C[C@@H]1OCC2(CCN(c3cnc4c(N5CCCc6nc(O)ccc65)n[nH]c4n3)CC2)[C@@H]1N [Compound 378] | < 1000 nM
30 | Cc1cccc2c1N(C1CC1)CCN2c1n[nH]c2nc(N3CCC4(CC3)CO[C@@H](C)[C@H]4N)cnc12 [Compound 379] | < 1000 nM
31 | C[C@@H]1OCC2(CCN(c3cnc4c(N5CCCc6nc(-c7cnoc7)ccc65)n[nH]c4n3)CC2)[C@@H]1N [Compound 380, (3S,4S)-3-methyl-8-{3-[6-(1,2-oxazol-4-yl)-1,2,3,4-tetrahydro-1,5-naphthyridin-1-yl]-1H-pyrazolo[3,4-b]pyrazin-6-yl}-2-oxa-8-azaspiro[4.5]decan-4-amine] | < 1000 nM
32 | Cc1cnc(-c2ccc3c(n2)CCCN3c2n[nH]c3nc(N4CCC5(CC4)CO[C@@H](C)[C@H]5N)cnc23)s1 [Compound 382] | < 1000 nM
33 | C[C@@H]1OCC2(CCN(c3cnc4c(N5CCN(C)c6nc(C#N)ccc65)n[nH]c4n3)CC2)[C@@H]1N [Compound 383] | < 1000 nM
34 | Cc1cccc2c1N(C)CCN2c1n[nH]c2nc(N3CCC4(CC3)CO[C@@H](C)[C@H]4N)cnc12 [Compound 384] | < 1000 nM
35 | CC1Cc2ccccc2C(=O)N1c1n[nH]c2nc(N3CCC4(CC3)CO[C@@H](C)[C@H]4N)cnc12 (some centres unmarked) [Compound 385] | ≥ 10000 nM
36 | C[C@@H]1OCC2(CCN(c3cnc4c(N5CCCc6c(C#N)cccc65)n[nH]c4n3)CC2)[C@@H]1N [Compound 386] | < 1000 nM
37 | CC(C)N1CCN(c2n[nH]c3nc(N4CCC5(CC4)CO[C@@H](C)[C@H]5N)cnc23)c2cccnc21 [Compound 387] | < 1000 nM
38 | C[C@@H]1OCC2(CCN(c3cnc4c(N5CCCc6c5ccc(C#N)c6S(C)(=O)=O)n[nH]c4n3)CC2)[C@@H]1N [Compound 388] | 1000 to 10000 nM
39 | Cc1nnc(-c2cccc3c2CCCN3c2n[nH]c3nc(N4CCC5(CC4)CO[C@@H](C)[C@H]5N)cnc23)o1 [Compound 389] | < 1000 nM
40 | COCc1cccc2c1CCCN2c1n[nH]c2nc(N3CCC4(CC3)CO[C@@H](C)[C@H]4N)cnc12 [Compound 390] | < 1000 nM
41 | COC(=O)N1CCN(c2n[nH]c3nc(N4CCC5(CC4)CO[C@@H](C)[C@H]5N)cnc23)c2ccccc21 [Compound 391] | < 1000 nM
42 | C[C@@H]1OCC2(CCN(c3cnc4c(N5CCCc6c5cccc6N5CCCS5(=O)=O)n[nH]c4n3)CC2)[C@@H]1N [Compound 392] | < 1000 nM
43 | C[C@@H]1OCC2(CCN(c3cnc4c(N5CCCc6sccc65)n[nH]c4n3)CC2)[C@@H]1N [Compound 394] | < 1000 nM
44 | C[C@@H]1OCC2(CCN(c3cnc4c(N5CCN(C)c6cc(-c7ncco7)ccc65)n[nH]c4n3)CC2)[C@@H]1N [Compound 395] | < 1000 nM
45 | C[C@@H]1OCC2(CCN(c3cnc4c(N5CCCc6nc(C7=CCCCC7)ccc65)n[nH]c4n3)CC2)[C@@H]1N [Compound 396, (3S,4S)-8-{3-[6-(cyclohex-1-en-1-yl)-1,2,3,4-tetrahydro-1,5-naphthyridin-1-yl]-1H-pyrazolo[3,4-b]pyrazin-6-yl}-3-methyl-2-oxa-8-azaspiro[4.5]decan-4-amine hydrochloride] | < 1000 nM
46 | C/C(=N/O)c1ccc2c(n1)CCCN2c1n[nH]c2nc(N3CCC4(CC3)CO[C@@H](C)[C@H]4N)cnc12 [Compound 397, (3,4S)-8-(3-{6-[(1Z)-1-(hydroxyimino)ethyl]-1,2,3,4-tetrahydro-1,5-naphthyridin-1-yl}-1H-pyrazolo[3,4-b]pyrazin-6-yl)-3-methyl-2-oxa-8-azaspiro[4.5]decan-4-amine] | < 1000 nM
47 | C[C@@H]1OCC2(CCN(c3cnc4c(N5CCN(C6COC6)c6cc(C#N)ccc65)n[nH]c4n3)CC2)[C@@H]1N [Compound 398] | < 1000 nM
